Where two headings read alike, the source gives them in different places.
Tests used:
[1] = system: acute musculoskeletal pain; conditions: data collected from similar trials, same protocol, scales, center and team, agents and doses per Table 5, FIG. 1, cited from earlier work
[2] = cited from earlier work
[3] = system: acute pain due to fracture; conditions: intravenous, public domain data; cited from earlier work
[4] = Compatibility of ketamine and aspirin with spray coating solvents; conditions: alcohol solvents for ketamine, aqueous solutions for aspirin
[5] = Ketamine pharmacokinetics and onset of action by route (background); conditions: ketamine given concurrently through the GI
[6] = in vivo; cited from earlier work
[7] = cited from earlier work; remark: listed apart in the source

**Q.** For CN1CC[C@]23c4c5ccc(O)c4O[C@H]2[C@@H](O)C=C[C@H]3[C@H]1C5 [IV morphine, Morphine], which “reduction of acute musculoskeletal pain, comparator agents” value (“reduction of acute musculoskeletal pain” below) [1] is on record?
**A.** The value was 5.1 points.

**Q.** What does the source list for CNC1(c2ccccc2Cl)CCCCC1=O (centres unmarked) [ketamine]?
**A.** elimination half-life ([2]; in vivo): 2 to 3 h; bioavailability, intramuscular injection ([2]; intramuscular): about 93%; bioavailability, IV ([2]; intravenous): about 100%; time to maximal concentrations, orally ([2]; oral): 30 min; bioavailability, oral route ([2]; oral, listed as oral ketamine): 18-20%; time of peak pain reduction effect [3]: about 5 mins; reduction of acute musculoskeletal pain, comparator agents ([1]; listed as intranasal (nebulized) ketamine): about 4 points; stability in spray coating solvent [4]: reacted with alcohol solvents leading to impurities; serum peak concentration later than directly absorbed ketamine [5]: 15 to 20 min

**Q.** What does the source list for NC1(c2ccccc2Cl)CCCCC1=O (centres unmarked) [norketamine]?
**A.** plasma levels relative to ketamine ([2]; following oral administration of ketamine): three times higher; potency as an anesthetic relative to ketamine [6]: one-third to one-fifth

**Q.** Which “reduction of acute musculoskeletal pain” value [1] does the source give for CC(C)Cc1ccc(C(C)C(=O)O)cc1 (centres unmarked) [oral ibuprofen, Ibuprofen] here?
**A.** Its value is 2 points.

**Q.** With CN1CC[C@]23c4c5ccc(O)c4O[C@H]2[C@@H](O)C=C[C@H]3[C@H]1C5.O=S(=O)(O)O [oral morphine, Morphine Sulfate] as the compound, how does the “reduction of acute musculoskeletal pain” value [1] read?
**A.** Its value is “about 4 points”.

**Q.** Which absolute oral bioavailability ([7]; in vivo, po) does the source give for N[C@@H]1c2cccnc2[C@H](OC(=O)N2CCC(n3c(=O)[nH]c4ncccc43)CC2)CC[C@H]1c1cccc(F)c1F [rimegepant] here?
**A.** Its absolute oral bioavailability is “approximately 64%”.

**Q.** And the “eliminated in unchanged form” value ([7]; in vivo)?
**A.** Its value is ~77 % of the dose.

**Q.** What about the “time of maximum concentration” value ([7]; oral administration of NURTEC Orally Disintegrating Tablet) of the same compound?
**A.** Its value is 1.5 h.

Source: patent publication US20250099402A1, “COMPOSITIONS OF ASPIRIN AND KETAMINE” (Vitalis Analgesics LLC, priority 2022, published 2025)
